# From US4774381A, “Herbicide resistant tobacco” (E. I. Du Pont de Nemours and Company, priority 1985, dated 1988)
# Legend:
# Type in all cases: cell-based, Nicotiana tabacum
# H1 (parent) callus = assay: Callus growth test with chlorsulfuron and structural analogues; conditions: 10 ppb compound, 2 weeks in the dark
# Description: (§1) In these growth tests, petri dishes containing C1 agar medium and 10 ppb of the sulfonamide herbicide chlorsulfuron and Compounds A through E were prepared. A sterile filter paper disc was placed in the center of each plate, and inoculated with 250 mg of callus tissue homozygous for the S4 mutation, or callus tissue derived from the haploid parent H1. The resulting cultures were incubated at 25° in the dark for 2 weeks. At the conclusion of the incubation period, filter discs containing callus cells were removed from culture dishes, placed on a Buchner funnel, and gentle suction applied to remove excess water. The resulting callus mass was then carefully scraped from the filter disc and weighed. Four replicates were included in each experiment.
# S4/S4 callus = assay: as above; conditions: 10 ppb compound, 2 weeks in the dark
# Description: as §1
# H1 callus culture = assay: Callus growth on chlorsulfuron-supplemented medium; conditions: chlorsulfuron at 5 ppb (14 nM); further: key: Callus cultures capable of growth on this medium are designated R (resistant); S denotes sensitive callus cultures that did not grow in the presence of the herbicide
# Description: (§2) Table 7, below, indicates sensitivity to chlorsulfuron of ALS activities in progeny of an S4/+ heterozygote. Data are presented as percent of ALS activity in the absence of chlorsulfuron. Each number represents the average of at least three independent experiments. Callus cultures initiated from the individual isolates were tested for growth on medium supplemented with chlorsulfuron at 5 ppb (14 nM).
# [1] = test system: Isolate 1 (+/+) callus culture; assay: Callus growth on chlorsulfuron-supplemented medium; conditions: chlorsulfuron at 5 ppb (14 nM); further: key: Callus cultures capable of growth on this medium are designated R (resistant); S denotes sensitive callus cultures that did not grow in the presence of the herbicide
# Description: as §2
# [2] = test system: Isolate 10 (S4/+) callus culture; assay: Callus growth on chlorsulfuron-supplemented medium; conditions: chlorsulfuron at 5 ppb (14 nM); further: key: Callus cultures capable of growth on this medium are designated R (resistant); S denotes sensitive callus cultures that did not grow in the presence of the herbicide
# Description: as §2
# [3] = test system: Isolate 16 (S4/S4) callus culture; assay: Callus growth on chlorsulfuron-supplemented medium; conditions: chlorsulfuron at 5 ppb (14 nM); further: key: Callus cultures capable of growth on this medium are designated R (resistant); S denotes sensitive callus cultures that did not grow in the presence of the herbicide
# Description: as §2
# [4] = test system: Isolate 23 (S4/+) callus culture; assay: Callus growth on chlorsulfuron-supplemented medium; conditions: chlorsulfuron at 5 ppb (14 nM)
# Description: as §2
# [5] = test system: Isolate 24 (S4/+) callus culture; assay: Callus growth on chlorsulfuron-supplemented medium; conditions: chlorsulfuron at 5 ppb (14 nM)
# Description: as §2
# [6] = test system: Isolate 27 (S4/S4) callus culture; assay: Callus growth on chlorsulfuron-supplemented medium; conditions: chlorsulfuron at 5 ppb (14 nM)
# Description: as §2
# [7] = test system: Isolate 30 (S4/S4) callus culture; assay: Callus growth on chlorsulfuron-supplemented medium; conditions: chlorsulfuron at 5 ppb (14 nM)
# Description: as §2
# [8] = test system: Isolate 7 (+/+) callus culture; assay: Callus growth on chlorsulfuron-supplemented medium; conditions: chlorsulfuron at 5 ppb (14 nM)
# Description: as §2
# [9] = test system: Isolate 9 (S4/+) callus culture; assay: Callus growth on chlorsulfuron-supplemented medium; conditions: chlorsulfuron at 5 ppb (14 nM)
# Description: as §2
smiles,measurement,setting,value
"COc1nc(C)nc(NC(=O)NS(=O)(=O)c2ccccc2Cl)n1 [Chlorsulfuron, chlorsulfuron]",Mean Fresh Weight,H1 (parent) callus,0 g
same,Mean Fresh Weight,S4/S4 callus,4.42 g
same,Callus Phenotype,H1 callus culture,S
same,Callus Phenotype,[1],S
same,Callus Phenotype,[2],R
same,Callus Phenotype,[3],R
same,Callus Phenotype,[4],R
same,Callus Phenotype,[5],R
same,Callus Phenotype,[6],R
same,Callus Phenotype,[7],R
same,Callus Phenotype,[8],S
same,Callus Phenotype,[9],R
